Laboratory results from ChEMBL document CHEMBL1121791, “Computer-assisted structure-activity studies of chemical carcinogens. Aromatic amines” (J Med Chem, 1981).

What was measured:
Type in all cases: functional, organism-based
Rattus norvegicus [1] = assay: Carcinogenic activity on all sites after subcutaneous administration
Rattus norvegicus [2] = assay: Carcinogenic activity on other sites after subcutaneous administration
Rattus norvegicus [3] = assay: Carcinogenic activity on breast after oral administration
Rattus norvegicus [4] = assay: Carcinogenic activity on breast after subcutaneous administration
Rattus norvegicus [5] = assay: Carcinogenic activity on ear duct after oral administration
Rattus norvegicus [6] = assay: Compound was tested for carcinogenic activity on mixed data after subcutaneous administration of the compound; + denotes carcinogenic activity.
Rattus norvegicus [7] = assay: Carcinogenic activity on all sites after oral administration
Rattus norvegicus [8] = assay: Carcinogenic activity on ear duct after subcutaneous administration
Rattus norvegicus [9] = assay: Carcinogenic activity on mixed data after oral administration
Rattus norvegicus [10] = assay: Carcinogenic activity on liver after subcutaneous administration
Rattus norvegicus [11] = assay: Carcinogenic activity on other sites after oral administration
Rattus norvegicus [12] = assay: Carcinogenic activity on breast after intraperitoneal administration
Rattus norvegicus [13] = assay: Carcinogenic activity on all sites after intraperitoneal administration
Rattus norvegicus [14] = assay: Carcinogenic activity on liver after oral administration
Rattus norvegicus [15] = assay: Carcinogenic activity on breast after oral administration of the compound

## Cc1cc(/C=C/c2ccccc2)ccc1N
Rattus norvegicus [1]
  Activity: Carcinogenic activity
Rattus norvegicus [2]
  Activity: Carcinogenic activity

## Cc1ccc(/N=N/c2cc(C)ccc2N)cc1
Rattus norvegicus [3]
  Activity: Carcinogenic activity

## Cc1cc(-c2ccc(N)c(C)c2)ccc1N
Rattus norvegicus [1]
  Activity: Carcinogenic activity
Rattus norvegicus [4]
  Activity: Carcinogenic activity
Rattus norvegicus [5]
  Activity: Carcinogenic activity
Rattus norvegicus [6]
  Activity: Carcinogenic activity
Rattus norvegicus [2]
  Activity: Carcinogenic activity

## CC(=O)ON(C(C)=O)c1ccc2c(c1)Cc1ccccc1-2
Rattus norvegicus [1]
  Activity: Carcinogenic activity
Rattus norvegicus [2]
  Activity: Carcinogenic activity

## NNc1nc(-c2ccc([N+](=O)[O-])o2)cs1
Rattus norvegicus [3]
  Activity: Carcinogenic activity
Rattus norvegicus [7]
  Activity: Carcinogenic activity

## COc1cc(/C=C/c2ccccc2)c(OC)cc1N
Rattus norvegicus [8]
  Activity: Carcinogenic activity
Rattus norvegicus [1]
  Activity: Carcinogenic activity

## N/C(=N\O)c1ccc([N+](=O)[O-])o1
Rattus norvegicus [3]
  Activity: Carcinogenic activity
Rattus norvegicus [7]
  Activity: Carcinogenic activity
Rattus norvegicus [9]
  Activity: Carcinogenic activity

## Nc1c2ccccc2cc2ccccc12
Rattus norvegicus [1]
  Activity: Carcinogenic activity
Rattus norvegicus [4]
  Activity: Carcinogenic activity
Rattus norvegicus [6]
  Activity: Carcinogenic activity

## ONc1ccc2c(c1)Cc1ccccc1-2
Rattus norvegicus [8]
  Activity: Carcinogenic activity
Rattus norvegicus [1]
  Activity: Carcinogenic activity
Rattus norvegicus [4]
  Activity: Carcinogenic activity
Rattus norvegicus [6]
  Activity: Carcinogenic activity
Rattus norvegicus [2]
  Activity: Carcinogenic activity

## Nc1ccc(-c2ccc(N)cc2)cc1
Rattus norvegicus [8]
  Activity: Carcinogenic activity
Rattus norvegicus [1]
  Activity: Carcinogenic activity
Rattus norvegicus [10]
  Activity: Carcinogenic activity
Rattus norvegicus [6]
  Activity: Carcinogenic activity
Rattus norvegicus [2]
  Activity: Carcinogenic activity

## Cc1cc(/N=N/c2ccccc2C)ccc1N
Rattus norvegicus [1]
  Activity: Carcinogenic activity
Rattus norvegicus [10]
  Activity: Carcinogenic activity

## Nc1ccc2c(ccc3ccccc32)c1
Rattus norvegicus [3]
  Activity: Carcinogenic activity
Rattus norvegicus [7]
  Activity: Carcinogenic activity

## Cc1cc(-c2ccccc2C)ccc1N
Rattus norvegicus [3]
  Activity: Carcinogenic activity
Rattus norvegicus [11]
  Activity: Carcinogenic activity
Rattus norvegicus [7]
  Activity: Carcinogenic activity
Rattus norvegicus [5]
  Activity: Carcinogenic activity
Rattus norvegicus [9]
  Activity: Carcinogenic activity

## Cc1cc(N)ccc1/C=C/c1ccccc1
Rattus norvegicus [1]
  Activity: Carcinogenic activity
Rattus norvegicus [2]
  Activity: Carcinogenic activity

## Nc1cccc2c1ccc1ccccc12
Rattus norvegicus [3]
  Activity: Carcinogenic activity
Rattus norvegicus [7]
  Activity: Carcinogenic activity

## CC(=O)ON(C(C)=O)c1ccc(-c2ccccc2)cc1
Rattus norvegicus [1]
  Activity: Carcinogenic activity
Rattus norvegicus [2]
  Activity: Carcinogenic activity

## CC(=O)N(OC(=O)c1ccccc1)c1ccc2c(c1)Cc1ccccc1-2
Rattus norvegicus [1]
  Activity: Carcinogenic activity
Rattus norvegicus [2]
  Activity: Carcinogenic activity

## NNc1nc(-c2ccc([N+](=O)[O-])cc2)cs1
Rattus norvegicus [3]
  Activity: Carcinogenic activity
Rattus norvegicus [7]
  Activity: Carcinogenic activity

## Nc1ccc(/C=C/c2ccc(N)c(Cl)c2)cc1Cl
Rattus norvegicus [1]
  Activity: Carcinogenic activity
Rattus norvegicus [2]
  Activity: Carcinogenic activity

## CC(=O)N(O)c1ccc2c(c1)-c1ccccc1C2
Rattus norvegicus [12]
  Activity: Carcinogenic activity
Rattus norvegicus [13]
  Activity: Carcinogenic activity

## [O-][n+]1ccc(NO)c2ccccc21
Rattus norvegicus [3]
  Activity: Carcinogenic activity
Rattus norvegicus [11]
  Activity: Carcinogenic activity
Rattus norvegicus [7]
  Activity: Carcinogenic activity

## Cc1cc(C)c(-c2ccc(N)cc2C)c(C)c1
Rattus norvegicus [1]
  Activity: Carcinogenic activity
Rattus norvegicus [2]
  Activity: Carcinogenic activity

## COc1cc(N)ccc1-c1ccccc1
Rattus norvegicus [1]
  Activity: Carcinogenic activity
Rattus norvegicus [2]
  Activity: Carcinogenic activity

## CC(=O)Nc1csc(-c2ccc([N+](=O)[O-])o2)n1
Rattus norvegicus [1]
  Activity: Carcinogenic activity
Rattus norvegicus [4]
  Activity: Carcinogenic activity
Rattus norvegicus [2]
  Activity: Carcinogenic activity

## Nc1ccc(-c2ccccc2)cc1
Rattus norvegicus [3]
  Activity: Carcinogenic activity
Rattus norvegicus [7]
  Activity: Carcinogenic activity

## CC(=O)Nc1ccc2c(c1)-c1ccccc1C2
Rattus norvegicus [12]
  Activity: Carcinogenic activity
Rattus norvegicus [13]
  Activity: Carcinogenic activity

## Nc1ccc(/C=C/c2ccc(N)cc2)cc1
Rattus norvegicus [8]
  Activity: Carcinogenic activity
Rattus norvegicus [1]
  Activity: Carcinogenic activity

## CC(=O)N(O)c1ccc2c(c1)Cc1cc(F)ccc1-2
Rattus norvegicus [11]
  Activity: Carcinogenic activity
Rattus norvegicus [14]
  Activity: Carcinogenic activity
Rattus norvegicus [15]
  Activity: Carcinogenic activity
Rattus norvegicus [7]
  Activity: Carcinogenic activity
Rattus norvegicus [5]
  Activity: Carcinogenic activity
Rattus norvegicus [9]
  Activity: Carcinogenic activity

## CC(=O)N(O)c1ccc2c(ccc3ccccc32)c1
Rattus norvegicus [1]
  Activity: Carcinogenic activity
Rattus norvegicus [4]
  Activity: Carcinogenic activity
Rattus norvegicus [2]
  Activity: Carcinogenic activity

## N#Cc1cc(/C=C/c2ccccc2)ccc1N
Rattus norvegicus [1]
  Activity: Carcinogenic activity
Rattus norvegicus [10]
  Activity: Carcinogenic activity
Rattus norvegicus [2]
  Activity: Carcinogenic activity

## CN(C)c1ccc2c(c1)Cc1ccccc1-2
Rattus norvegicus [11]
  Activity: Carcinogenic activity
Rattus norvegicus [14]
  Activity: Carcinogenic activity
Rattus norvegicus [15]
  Activity: Carcinogenic activity
Rattus norvegicus [7]
  Activity: Carcinogenic activity
Rattus norvegicus [5]
  Activity: Carcinogenic activity
Rattus norvegicus [9]
  Activity: Carcinogenic activity

## CC(=O)N(C(C)=O)c1ccc2c(c1)Cc1ccccc1-2
Rattus norvegicus [11]
  Activity: Carcinogenic activity
Rattus norvegicus [14]
  Activity: Carcinogenic activity
Rattus norvegicus [15]
  Activity: Carcinogenic activity
Rattus norvegicus [7]
  Activity: Carcinogenic activity
Rattus norvegicus [5]
  Activity: Carcinogenic activity
Rattus norvegicus [9]
  Activity: Carcinogenic activity

## Nc1ccc(/C=C/c2ccc(N)cc2Cl)c(Cl)c1
Rattus norvegicus [1]
  Activity: Carcinogenic activity
Rattus norvegicus [10]
  Activity: Carcinogenic activity

## CC(=O)N(O)c1cccc2c1Cc1ccccc1-2
Rattus norvegicus [12]
  Activity: Carcinogenic activity
Rattus norvegicus [13]
  Activity: Carcinogenic activity

## Nc1ccc(/C=C/c2ccccc2)cc1
Rattus norvegicus [3]
  Activity: Carcinogenic activity
Rattus norvegicus [7]
  Activity: Carcinogenic activity
Rattus norvegicus [5]
  Activity: Carcinogenic activity

## CC(=O)ON(C(C)=O)c1cccc2ccc3ccccc3c12
Rattus norvegicus [1]
  Activity: Carcinogenic activity
Rattus norvegicus [2]
  Activity: Carcinogenic activity

## CC(=O)N(C(C)=O)c1ccc(/C=C/c2ccccc2)cc1
Rattus norvegicus [8]
  Activity: Carcinogenic activity
Rattus norvegicus [1]
  Activity: Carcinogenic activity
Rattus norvegicus [2]
  Activity: Carcinogenic activity

## CC(=O)Nc1cccc2c1Cc1ccccc1-2
Rattus norvegicus [12]
  Activity: Carcinogenic activity
Rattus norvegicus [13]
  Activity: Carcinogenic activity

## Nc1ccc(/C=C/c2ccc(F)cc2)cc1
Rattus norvegicus [8]
  Activity: Carcinogenic activity
Rattus norvegicus [1]
  Activity: Carcinogenic activity
Rattus norvegicus [10]
  Activity: Carcinogenic activity
Rattus norvegicus [2]
  Activity: Carcinogenic activity
Rattus norvegicus [9]
  Activity: Carcinogenic activity

## O=CNNc1nc(-c2ccc([N+](=O)[O-])o2)cs1
Rattus norvegicus [3]
  Activity: Carcinogenic activity
Rattus norvegicus [11]
  Activity: Carcinogenic activity
Rattus norvegicus [7]
  Activity: Carcinogenic activity

## CC(=O)Nc1ccc2c(ccc3ccccc32)c1
Rattus norvegicus [3]
  Activity: Carcinogenic activity
Rattus norvegicus [11]
  Activity: Carcinogenic activity
Rattus norvegicus [14]
  Activity: Carcinogenic activity
Rattus norvegicus [7]
  Activity: Carcinogenic activity
Rattus norvegicus [5]
  Activity: Carcinogenic activity
Rattus norvegicus [9]
  Activity: Carcinogenic activity

## Cc1ccc(C)c(-c2ccc(N)cc2C)c1
Rattus norvegicus [1]
  Activity: Carcinogenic activity
Rattus norvegicus [2]
  Activity: Carcinogenic activity
